Test results taken from patent publication US20250352679A1, “IN-SITU STE[…] VAPOR PHASE DEPOSITION” (Applied Materials, Inc., priority 2024, published 2025).

Tested on: bioburden of powdered lactose
Assay: Bioburden testing (US Pharmacopeia 61, colony count) of lactose powder after ozone sterilization in the reactor chamber
Type: cell-based
Settings: 50 g lactose powder, 5 hrs, 35° C., 10 rpm, 0 ppm control 1800 CFU/ml
Method: (§1) Briefly, 50 grams of lactose powder was loaded into the reactor chamber. The chamber was evacuated to reach a pressure of 0.008 Torr and then 0.01 Torr. Then the chamber was filled with ozone at 25 sccm to 2 ppm, 10 ppm or 20 ppm. The ozone was kept in the chamber for 5 hrs. The reaction was held at 35° C. and the reactor chamber was rotated at 10 rpm. At the end of the 5 hour incubation time, the chamber was evacuated to reach a pressure of 0.01 Torr and purged with nitrogen. The lactose was then tested using US Pharmacopeia 61 testing. Briefly, the samples were incubated in petri-dishes and counted for colony forming units (cfu).
as §1, with “ppm. Water vapor was also added at an ozone/water ratio of 1:10.” for “ppm.”, “test” for “tested”, “testing.” for “testing. Briefly, the samples were incubated in petri-dishes and counted for colony forming units (cfu).”

How did the Bioburden (ozone concentration 2 ppm) turn out when `O=[O+][O-]` [Dry ozone, ozone] was run?
The Bioburden was 500 CFU/ml.

What about the Bioburden (ozone concentration 10 ppm) of the same molecule?
Its Bioburden is 50 CFU/ml.

What about the Bioburden (ozone concentration 20 ppm) of the same molecule?
The Bioburden was less than 1 CFU/ml.
